Tests used:
Rattus norvegicus [1] = settings: oral, gavage
Rattus norvegicus [2] = assay: FEL; higher = less toxic; settings: reproduction developmental; duration: 54 days; oral; gavage; F; Wistar; generation: P0; P0: Whole Body: Mortality
[3] = developmental, duration: 54 days, M/F, Wistar, generation: F1, F1: Developmental: Whole Body: Dams with Stillborn Pups + F1: Developmental: Whole Body: External Abnormalities + F1: Developmental: Whole …
[4] = developmental, duration: 54 days, generation: F1, F1: Developmental: Whole Body: Dams with Liveborn Pups
[5] = reproduction developmental, duration: 28 days, M, Wistar, generation: P0, P0: Reproductive: Reproductive Organs: Reproductive Organ Histopathology + P0: Reproductive: Whole Body: Copulation Index
[6] = reproduction developmental, duration: 28 days, M, Wistar, generation: P0, P0: Whole Body: Copulation Index
[7] = reproduction developmental, duration: 54 days, F, Wistar, generation: P0, P0: Developmental: Uterus: Implantation + P0: General Toxicity: Whole Body: Clinical Observations + P0: General Toxicity: Whole Body: …
[8] = reproduction developmental, duration: 54 days, F, Wistar, generation: P0, P0: Reproductive: Reproductive Organs: Reproductive Organ Histopathology + P0: Reproductive: Whole Body: Copulation Index + P0: Reproductive…
[9] = reproduction developmental, duration: 54 days, F, Wistar, generation: P0, P0: Reproductive: Whole Body: Length of Gestation
[10] = reproduction developmental, duration: 54 days, F, Wistar, generation: P0, P0: Whole Body: Clinical Observations + P0: Whole Body: Maternal Body Weight + P0: Whole Body: Maternal Body Weight Change
[11] = reproduction developmental, duration: 54 days, F, Wistar, generation: P0, P0: Whole Body: Copulation Index
[12] = reproduction developmental, duration: 54 days, F, Wistar, generation: P0, P0: Whole Body: Length of Gestation + P0: Whole Body: Mortality
[13] = reproduction developmental, duration: 54 days, M/F, Wistar, generation: F1, F1: Whole Body: Litter Weight
[14] = short-term, duration: 28 days, M, Wistar, Adrenal: Adrenal Gland Histopathology + Dermal: Ruffled Fur + Liver: Liver Histopathology + Nerve: Nervous Tissue Histopathology + …
[15] = short-term, duration: 28 days, M, Wistar, Adrenal: Adrenal Gland Weight, Relative + Liver: Liver Weight, Absolute + Lung: Lung Histopathology + Lung: Respiration Distress + Thymus: …
[16] = short-term, duration: 28 days, M, Wistar, Endocrine: Adrenal: Adrenal Gland Histopathology + Endocrine: Adrenal: Adrenal Gland Weight, Absolute + Endocrine: Adrenal: Adrenal Gland …
[17] = short-term, duration: 28 days, M, Wistar, Other Systems: Eye: Ophthalmology + Other Systems: Lung: Lung Histopathology + Other Systems: Lung: Respiration Distress
[18] = subchronic, duration: 54 days, F, Wistar, Adrenal: Adrenal Gland Histopathology + Liver: Liver Histopathology + Nerve: Nervous Tissue Histopathology + Whole Body: Function …
[19] = subchronic, duration: 54 days, F, Wistar, Dermal: Ruffled Fur + Lung: Lung Histopathology + Lung: Respiration Distress + Peripheral Nervous System: Paresis + Thymus: Thymus …
[20] = subchronic, duration: 54 days, F, Wistar, Endocrine: Adrenal: Adrenal Gland Histopathology + Endocrine: Adrenal: Adrenal Gland Weight, Absolute + Endocrine: Adrenal: Adrenal Gland …
[21] = subchronic, duration: 54 days, F, Wistar, Other Systems: Eye: Ophthalmology + Other Systems: Lung: Lung Histopathology + Other Systems: Lung: Respiration Distress

CCO[Si](CCC(F)(F)C(F)(F)C(F)(F)C(F)(F)C(F)(F)C(F)(F)F)(OCC)OCC [Triethoxy((perfluorohexyl)ethyl)silane]
100 mg/kg-day: LOAEL (Rattus norvegicus [1]; [3]) | LOAEL (Rattus norvegicus [1]; [4]) | NOAEL (Rattus norvegicus [1]; [5]) | NEL (Rattus norvegicus [1]; [6]) | LOAEL (Rattus norvegicus [1]; [7]) | NOAEL (Rattus norvegicus [1]; [8]) | NOAEL (Rattus norvegicus [1]; [9]) | LEL (Rattus norvegicus [1]; [10]) | NEL (Rattus norvegicus [1]; [11]) | NEL (Rattus norvegicus [1]; [12]) | LEL (Rattus norvegicus [1]; [13]) | LEL (Rattus norvegicus [1]; [14]) | NEL (Rattus norvegicus [1]; [15]) | LOAEL (Rattus norvegicus [1]; [16]) | NOAEL (Rattus norvegicus [1]; [17]) | LEL (Rattus norvegicus [1]; [18]) | NEL (Rattus norvegicus [1]; [19]) | LOAEL (Rattus norvegicus [1]; [20]) | NOAEL (Rattus norvegicus [1]; [21])
125 mg/kg-day: NEL (Rattus norvegicus [1]; reproduction developmental, duration: 28 days, M, Wistar, generation: P0, P0: Reproductive Organs: Reproductive Organ Histopathology) | LOAEL (Rattus norvegicus [1]; [5]) | LEL (Rattus norvegicus [1]; [6]) | NEL (Rattus norvegicus [1]; reproduction developmental, duration: 54 days, F, Wistar, generation: P0, P0: Reproductive Organs: Reproductive Organ Histopathology + P0: Whole Body: Fertility Index) | LOAEL (Rattus norvegicus [1]; [8]) | LOAEL (Rattus norvegicus [1]; [9]) | NEL (Rattus norvegicus [1]; reproduction developmental, duration: 54 days, F, Wistar, generation: P0, P0: Uterus: Implantation) | LEL (Rattus norvegicus [1]; [11]) | LEL (Rattus norvegicus [1]; [12]) | NEL (Rattus norvegicus [1]; reproduction developmental, duration: 54 days, M/F, Wistar, generation: F1, F1: Whole Body: Dams with Liveborn Pups) | NEL (Rattus norvegicus [1]; reproduction developmental, duration: 54 days, M/F, Wistar, generation: F1, F1: Whole Body: Dams with Stillborn Pups + F1: Whole Body: External Abnormalities + F1: Whole Body: Litter Size + F1: Whole Body: Male Pups …) | NOAEL (Rattus norvegicus [1]; short-term, duration: 28 days, M, Wistar, Hematologic: Blood: Hematology, Unspecified + Urinary: Kidney: Urinalysis) | LOAEL (Rattus norvegicus [1]; [17]) | NOAEL (Rattus norvegicus [1]; subchronic, duration: 54 days, F, Wistar, Hematologic: Blood: Hematology, Unspecified + Urinary: Kidney: Urinalysis) | LOAEL (Rattus norvegicus [1]; [21]) | FEL (Rattus norvegicus [2])
50 mg/kg-day: NOAEL (Rattus norvegicus [1]; [3]) | NOAEL (Rattus norvegicus [1]; [4]) | NOAEL (Rattus norvegicus [1]; [7]) | NEL (Rattus norvegicus [1]; [10]) | NEL (Rattus norvegicus [1]; [13]) | NEL (Rattus norvegicus [1]; [14]) | NOAEL (Rattus norvegicus [1]; [16]) | NEL (Rattus norvegicus [1]; [18]) | NOAEL (Rattus norvegicus [1]; [20]) | LEL (Rattus norvegicus [1]; subchronic, duration: 54 days, F, Wistar, Whole Body: Maternal Body Weight)
150 mg/kg-day: NEL (Rattus norvegicus [1]; short-term, duration: 28 days, M, Wistar, Adrenal: Adrenal Gland Weight, Absolute + Blood: Hematology, Unspecified + Eye: Ophthalmology, Unspecified + Kidney: Urinalysis, Unspecified…) | LEL (Rattus norvegicus [1]; [15]) | NEL (Rattus norvegicus [1]; subchronic, duration: 54 days, F, Wistar, Adrenal: Adrenal Gland Weight, Absolute + Adrenal: Adrenal Gland Weight, Relative + Blood: Hematology, Unspecified + Eye: Ophthalmology, …) | LEL (Rattus norvegicus [1]; [19])

From EPA's ToxValDB 9.5
